Laboratory results reported in ChEMBL document CHEMBL1201862, “PubChem BioAssay data set” (2004).
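Compound exposure: 48 hours, 5 concentrations, 96-well plates. GI50 marks 50% less growth.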 The source made the active and inactive calls. Rule as the data show it: active = GI50 up to about 1.1 µM and inactive = higher.

What was measured:
Experiment in all cases: NCI anticancer screen, dose series, 48 h
CAKI-1 = tested on: CAKI-1
SK-MEL-28 = tested on: SK-MEL-28
EKVX = tested on: EKVX
HCT-116 = tested on: HCT-116
KM12 = tested on: KM12
OVCAR-8 = tested on: OVCAR-8
SNB-75 = tested on: SNB-75
SR = tested on: SR
RPMI-8226 = tested on: RPMI-8226
SF-539 = tested on: SF-539
MOLT-4 = tested on: MOLT-4
HOP-62 = tested on: HOP-62
SNB-19 = tested on: SNB-19
LOX IMVI = tested on: LOX IMVI
NCI-H460 = tested on: NCI-H460
HCT-15 = tested on: HCT-15
TK-10 = tested on: TK-10
A498 = tested on: A498
RXF 393 = tested on: RXF 393
MDA-MB-435 = tested on: MDA-MB-435

SMILES | GI50 (CAKI-1) | GI50 (SK-MEL-28) | GI50 (EKVX) | GI50 (HCT-116) | GI50 (KM12) | GI50 (OVCAR-8) | GI50 (SNB-75) | GI50 (SR) | GI50 (RPMI-8226) | GI50 (SF-539) | GI50 (MOLT-4) | GI50 (HOP-62) | GI50 (SNB-19) | GI50 (LOX IMVI) | GI50 (NCI-H460) | GI50 (HCT-15) [µM] | GI50 (TK-10) | GI50 (A498) | GI50 (RXF 393) | GI50 (MDA-MB-435)
c1cncc(C2c3[nH]c4ccccc4c3CCN2CCN2CCCCC2)c1 (stereo unspecified) | > 100 µM (inactive) | 46.7 µM (inactive) | > 100 µM (inactive) | > 100 µM (inactive) | > 100 µM (inactive) | > 100 µM (inactive) | 43.6 µM (inactive) | > 100 µM (inactive) | 62.8 µM (inactive) | > 100 µM (inactive) | > 100 µM (inactive) | > 100 µM (inactive) | > 100 µM (inactive) | > 100 µM (inactive) | > 100 µM (inactive) | > 100 | > 100 µM (inactive) | 70.8 µM (inactive) | – | –
Cc1c(C(=N)N)oc2ccccc12 | > 100 µM (inactive) | > 100 µM (inactive) | > 100 µM (inactive) | > 100 µM (inactive) | > 100 µM (inactive) | > 100 µM (inactive) | 79.6 µM (inactive) | > 100 µM (inactive) | – | > 100 µM (inactive) | > 100 µM (inactive) | > 100 µM (inactive) | > 100 µM (inactive) | > 100 µM (inactive) | > 100 µM (inactive) | – | > 100 µM (inactive) | > 100 µM (inactive) | > 100 µM (inactive) | –
CCOC(=O)C(C(=O)OCC)S(C)(=O)=O | – | > 100 µM (inactive) | > 100 µM (inactive) | > 100 µM (inactive) | > 100 µM (inactive) | > 100 µM (inactive) | – | > 100 µM (inactive) | > 100 µM (inactive) | > 100 µM (inactive) | > 100 µM (inactive) | > 100 µM (inactive) | > 100 µM (inactive) | > 100 µM (inactive) | > 100 µM (inactive) | – | > 100 µM (inactive) | > 100 µM (inactive) | > 100 µM (inactive) | –
COc1cc2c([C@@H](OC(=O)c3ccccc3)c3ccc4c(c3)OCO4)nccc2c(OC)c1OC | 9.31 µM (inactive) | – | 43.6 µM (inactive) | 26.9 µM (inactive) | – | 49.5 µM (inactive) | 11.8 µM (inactive) | 17.8 µM (inactive) | 9.71 µM (inactive) | 82.2 µM (inactive) | 13.5 µM (inactive) | > 100 µM (inactive) | 93.8 µM (inactive) | 29.2 µM (inactive) | 54 µM (inactive) | 37.6 | 75.9 µM (inactive) | 32.2 µM (inactive) | 20.2 µM (inactive) | –
CN(C)CCNC(=O)c1ccc(Cl)c2c(Nc3ccc(S(N)(=O)=O)cc3)c3ccccc3nc12 | 4.54 µM (inactive) | 2.67 µM (inactive) | 5.62 µM (inactive) | 0.29 µM (active) | 1.39 µM (inactive) | 0.65 µM (active) | 1.33 µM (inactive) | 0.151 µM (active) | 4.5 µM (inactive) | 1.21 µM (inactive) | 0.198 µM (active) | 8.45 µM (inactive) | 1.84 µM (inactive) | 0.594 µM (active) | 0.706 µM (active) | 2.84 | 2.95 µM (inactive) | 2.72 µM (inactive) | – | –
CC12CCC([C@H](N3CCOCC3)/C1=N\OCCN1CCCC1)C2(C)C (stereo partly specified) | > 100 µM (inactive) | > 100 µM (inactive) | > 100 µM (inactive) | > 100 µM (inactive) | > 100 µM (inactive) | > 100 µM (inactive) | > 100 µM (inactive) | > 100 µM (inactive) | > 100 µM (inactive) | > 100 µM (inactive) | > 100 µM (inactive) | > 100 µM (inactive) | > 100 µM (inactive) | > 100 µM (inactive) | > 100 µM (inactive) | > 100 | > 100 µM (inactive) | > 100 µM (inactive) | > 100 µM (inactive) | –
Nc1cnc(Nc2cccc3ccccc23)o1 | > 10 µM (inactive) | > 10 µM (inactive) | > 10 µM (inactive) | > 10 µM (inactive) | > 10 µM (inactive) | > 10 µM (inactive) | > 10 µM (inactive) | – | – | > 10 µM (inactive) | – | > 10 µM (inactive) | > 10 µM (inactive) | > 10 µM (inactive) | > 10 µM (inactive) | > 10 | > 10 µM (inactive) | > 10 µM (inactive) | > 10 µM (inactive) | > 10 µM (inactive)
Cn1cnc([N+](=O)[O-])c1Sc1nc2cc(Cl)c(F)cc2[nH]1 | 2.58 µM (inactive) | 13.5 µM (inactive) | 1.38 µM (inactive) | 6.9 µM (inactive) | 15 µM (inactive) | 3.75 µM (inactive) | 13.8 µM (inactive) | 1.75 µM (inactive) | 7.24 µM (inactive) | 4.32 µM (inactive) | 2.08 µM (inactive) | 74.5 µM (inactive) | 26.4 µM (inactive) | 16.1 µM (inactive) | 10.3 µM (inactive) | 4.37 | 14.5 µM (inactive) | 18.6 µM (inactive) | 3.69 µM (inactive) | –
